Assay results: patent US20240349726A1, “SUBSTITUTED 1,2,4-THIADIAZOLYL NICOTINAMIDES, SALTS OR N-OXIDES THEREOF AND THEIR USE AS HERBICIDALLY ACTIVE SUBSTANCES” (Bayer Aktiengesellschaft, priority 2021, published 2024)

Columns and labels:
Assay type in all cases: in vivo
Lolium rigidum [1] = assay: Herbicidal pre-emergence action, LOLRI; conditions: visual grading after ca. 3 weeks vs untreated controls
Text: (§1) Seeds of mono- and dicotyledonous weed plants were sown in plastic pots (double sowings with one species of mono- and one species of dicotyledonous weed plants per pot), in sandy loam, and covered with soil. The compounds according to the invention, formulated in the form of wettable powders (WP) or as emulsifiable concentrates (EC), were applied to the surface of the covering soil as an aqueous suspension or as an emulsion, with the addition of 0.5% of an additive, at an application rate of 600 litres of water per hectare (converted). Following treatment, the pots were placed in a greenhouse and kept under optimum growth conditions for the test plants. The visual grading of the damage to the test plants is carried out after ca. 3 weeks in comparison to untreated controls (herbicidal effect in percent (%): 100% effect=plants have died, 0% effect=as control plants). Seeds of mono- and dicotyledonous weed plants were sown in plastic pots (double sowings with one species of mono- and one species of dicotyledonous weed plants per pot), in sandy loam, and covered with soil. The compounds according to the invention, formulated in the form of wettable powders (WP) or as emulsifiable concentrates (EC), were applied to the surface of the covering soil as an aqueous suspension or as an emulsion, with the addition of 0.5% of an additive, at an application rate of 600 litres of water per hectare (converted). Following treatment, the pots were placed in a greenhouse and kept under optimum growth conditions for the test plants. The visual grading of the damage to the test plants is carried out after ca. 3 weeks in comparison to untreated controls (herbicidal effect in percent (%): 100% effect=plants have died, 0% effect=as control plants).

Matricaria inodora [2] = assay: Herbicidal post-emergence action, MATIN; conditions: 1280 g/ha, assessed visually after ca. 3 weeks vs untreated controls
Text: (§2) Seeds of mono- and dicotyledonous weed plants were sown in plastic pots (double sowings with one species of mono- and one species of dicotyledonous weed plants per pot), in sandy loam, covered with soil and grown under controlled growth conditions. 2 to 3 weeks after sowing, the test plants were sprayed in the single-leaf stage. The compounds according to the invention, formulated in the form of wettable powders (WP) or as emulsifiable concentrates (EC), were sprayed onto the green plant parts as an aqueous suspension or as an emulsion, with the addition of 0.5% of an additive, at an application rate of 600 litres of water per hectare (converted). The test plants were placed in the greenhouse for ca. 3 weeks under optimum growth conditions, and then the effect of the preparations is assessed visually in comparison with untreated controls (herbicidal effect in percent (%): 100% effect=plants have died, 0% effect=as control plants). […]

Amaranthus retroflexus [3] = assay: Herbicidal post-emergence action, AMARE; conditions: assessed visually after ca. 3 weeks vs untreated controls
Text: as §2

Veronica persica = assay: Herbicidal post-emergence action, VERPE; conditions: 1280 g/ha, assessed visually after ca. 3 weeks vs untreated controls
Text: as §2

Stellaria media [4] = assay: Herbicidal pre-emergence action, STEME; conditions: visual grading after ca. 3 weeks vs untreated controls
Text: as §1

Kochia scoparia = assay: Herbicidal pre-emergence action, KCHSC; conditions: 1280 g/ha, visual grading after ca. 3 weeks vs untreated controls
Text: as §1

Amaranthus retroflexus [5] = assay: Herbicidal pre-emergence action, AMARE; conditions: visual grading after ca. 3 weeks vs untreated controls
Text: as §1

Stellaria media [6] = assay: Herbicidal post-emergence action, STEME; conditions: assessed visually after ca. 3 weeks vs untreated controls
Text: as §2

Lolium rigidum [7] = assay: Herbicidal post-emergence action, LOLRI; conditions: 1280 g/ha, assessed visually after ca. 3 weeks vs untreated controls
Text: as §2

Echinochloa crus-galli = assay: Herbicidal post-emergence action, ECHCG; conditions: 1280 g/ha, assessed visually after ca. 3 weeks vs untreated controls
Text: Seeds of mono- and dicotyledonous weed plants were sown in plastic pots (double sowings with one species of mono- and one species of dicotyledonous weed plants per pot), in sandy loam, covered with soil and grown under controlled growth conditions. 2 to 3 weeks after sowing, the test plants were sprayed in the single-leaf stage. The compounds according to the invention, formulated in the form of wettable powders (WP) or as emulsifiable concentrates (EC), were sprayed onto the green plant parts as an aqueous suspension or as an emulsion, with the addition of 0.5% of an additive, at an application rate of 600 litres of water per hectare (converted). The test plants were placed in the greenhouse for ca. 3 weeks under optimum growth conditions, and then the effect of the preparations is assessed visually in comparison with untreated controls (herbicidal effect in percent (%): 100% effect=plants have died, 0% effect=as control plants).

Abutilon theophrasti = assay: Herbicidal pre-emergence action, ABUTH; conditions: 1280 g/ha, visual grading after ca. 3 weeks vs untreated controls
Text: (§3) Seeds of mono- and dicotyledonous weed plants were sown in plastic pots (double sowings with one species of mono- and one species of dicotyledonous weed plants per pot), in sandy loam, and covered with soil. The compounds according to the invention, formulated in the form of wettable powders (WP) or as emulsifiable concentrates (EC), were applied to the surface of the covering soil as an aqueous suspension or as an emulsion, with the addition of 0.5% of an additive, at an application rate of 600 litres of water per hectare (converted). Following treatment, the pots were placed in a greenhouse and kept under optimum growth conditions for the test plants. The visual grading of the damage to the test plants is carried out after ca. 3 weeks in comparison to untreated controls (herbicidal effect in percent (%): 100% effect=plants have died, 0% effect=as control plants).

Matricaria inodora [8] = assay: Herbicidal pre-emergence action, MATIN; conditions: visual grading after ca. 3 weeks vs untreated controls
Text: as §1

Setaria viridis = assay: Herbicidal pre-emergence action, SETVI; conditions: 1280 g/ha, visual grading after ca. 3 weeks vs untreated controls
Text: as §3

## CC(C)c1ccnc(F)c1C(=O)Nc1ncns1 [Example I-025]
Lolium rigidum [1]; 320 g/ha
  herbicidal effect LOLRI: 90%
Lolium rigidum [1]; 1280 g/ha
  herbicidal effect LOLRI: 100%
Matricaria inodora [2]
  herbicidal effect MATIN: 90%
Amaranthus retroflexus [3]; 320 g/ha
  herbicidal effect AMARE: 90%
Amaranthus retroflexus [3]; 1280 g/ha
  herbicidal effect AMARE: 100%
Veronica persica
  herbicidal effect VERPE: 90%
Stellaria media [4]; 320 g/ha
  herbicidal effect STEME: 90%
Stellaria media [4]; 1280 g/ha
  herbicidal effect STEME: 90%
Kochia scoparia
  herbicidal effect KCHSC: 90%
Amaranthus retroflexus [5]; 320 g/ha
  herbicidal effect AMARE: 90%
Amaranthus retroflexus [5]; 1280 g/ha
  herbicidal effect AMARE: 100%
Stellaria media [6]; 320 g/ha
  herbicidal effect STEME: 90%
Stellaria media [6]; 1280 g/ha
  herbicidal effect STEME: 90%
Lolium rigidum [7]
  herbicidal effect LOLRI: 90%
Echinochloa crus-galli
  herbicidal effect ECHCG: 90%
Abutilon theophrasti
  herbicidal effect ABUTH: 100%
Matricaria inodora [8]; 320 g/ha
  herbicidal effect MATIN: 100%
Matricaria inodora [8]; 1280 g/ha
  herbicidal effect MATIN: 100%
Setaria viridis
  herbicidal effect SETVI: 90%
